Peptide text beside a SMILES is read from it. * marks the point of attachment. Stearoyl = CCCCCCCCCCCCCCCCCC(=O)*; Lauroyl = CCCCCCCCCCCC(=O)*
Assays:
[1] = test system: HIV-1NL4-3(D36G) pseudovirus; type: cell-based; conditions: Fig 1; NL4-3(D36G) pseudovirus; mean ± SD of three assays in triplicate; read-out: Anti-HIV activity (IC50, pM) NL4-3 entry
Experimental: The inhibitory activities of inhibitors against HIV-1 pseudoviruses and replication-competent isolates were measured as described previously. Briefly, HIV-1 pseudoviruses were generated via the cotransfection of HEK293T cells with an Env-expressing plasmid and a backbone plasmid that encodes Env-defective, luciferase-expressing HIV-1 genome (pSG3Δenv). Viral stocks of replication-competent HIV-1 isolates were generated by transfecting viral molecular clones into HEK293T cells. […] Inhibitors were prepared in 3-fold dilutions, mixed with 100 TCID50 of a virus, and then incubated for 1 h at room temperature. […] Luciferase activity was measured as described above.

[2] = biological target: HIV-1JRCSF; type: cell-based; conditions: Fig 1; replication-competent virus; mean ± SD of three assays in triplicate; read-out: Anti-HIV activity (IC50, pM) JRCSF infection
Experimental: The inhibitory activities of inhibitors against HIV-1 pseudoviruses and replication-competent isolates were measured as described previously. Briefly, HIV-1 pseudoviruses were generated via the cotransfection of HEK293T cells with an Env-expressing plasmid and a backbone plasmid that encodes Env-defective, luciferase-expressing HIV-1 genome (pSG3Δenv). Viral stocks of replication-competent HIV-1 isolates were generated by transfecting viral molecular clones into HEK293T cells. Culture supernatants were harvested at 48 h posttransfection, and 50% tissue culture infectious doses (TCID50) in TZM-bl cells were determined. Inhibitors were prepared in 3-fold dilutions, mixed with 100 TCID50 of a virus, and then incubated for 1 h at room temperature. The mixture was added to TZM-bl cells (10^4/well), and the cells were incubated for additional 48 h at 37°C. Luciferase activity was measured as described above.

[3] = biological target: T1, gp41 NHR-derived target mimic peptide N39 (Human immunodeficiency virus type 1 group M subtype B, UniProt P04578); assay: CD spectroscopy of lipopeptides in complex with target mimic peptide N39; type: binding, HIV-1; set-up: [θ]222: unit not given here; conditions: complex with N39, each peptide 10 μM in PBS; representative of 2 assays
T1 construct: the gp41 NHR-derived target mimic peptide N39
Excerpt: Spectra were corrected by subtracting a solvent blank.

[4] = lipopeptide alone, 10 μM in PBS; [θ]222 / -33,000; representative of 2 assays
[5] = biological target: T2, HIV-1HXB2 Env (Human immunodeficiency virus type 1 group M subtype B, UniProt P04578); assay: HIV-1HXB2 Env-mediated cell-cell fusion (HL2/3 effector, TZM-bl target, luciferase reporter); type: cell-based
T2 construct: HL2/3 cells, which stably express high levels of Env, Gag, Tat, Rev, and Nef proteins of the integrated HIV-1 molecular clone HXB2/3gpt; host or cells: HL2/3 cells (effector), cocultured with TZM-bl target cells
Experimental: The inhibitory activities of inhibitors on HIV-1HXB2 Env-mediated cell-cell fusion were determined by a reporter gene assay based on the activation of an HIV LTR-driven luciferase cassette in TZM-bl cells (target) by HIV-1 tat from HL2/3 cells (effector). Briefly, 1 x 10^4/well of TZM-bl cells were plated in 96-well plates and incubated at 37°C overnight. Then, 3 x 10^4/well of HL2/3 cells were cocultured with target cells for 6 h at 37°C in the presence or absence of an inhibitor at graded concentrations. Luciferase activity was measured using luciferase assay reagents and a Luminescence Counter (Promega, Madison, Wisconsin, USA).

T1 sequence (P04578 528-566): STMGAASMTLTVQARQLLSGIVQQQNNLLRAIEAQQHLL
T2 sequence (P04578 512-856): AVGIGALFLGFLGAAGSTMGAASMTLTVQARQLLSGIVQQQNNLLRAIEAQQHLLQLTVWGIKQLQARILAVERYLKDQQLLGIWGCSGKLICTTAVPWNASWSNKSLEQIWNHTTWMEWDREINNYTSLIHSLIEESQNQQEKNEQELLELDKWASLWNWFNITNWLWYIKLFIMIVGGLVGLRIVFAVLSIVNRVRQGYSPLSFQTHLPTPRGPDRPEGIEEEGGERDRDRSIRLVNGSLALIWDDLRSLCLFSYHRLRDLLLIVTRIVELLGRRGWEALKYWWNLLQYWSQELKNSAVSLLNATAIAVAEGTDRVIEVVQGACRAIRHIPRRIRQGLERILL

| Structure (SMILES) | IC50 [1] [pM] | IC50 [2] [pM] | Helix content (%) [3] [%] | [θ]222 [3] | Helix content (%) [4] [%] | IC50 [5] [nM] |
| --- | --- | --- | --- | --- | --- | --- |
| CCCCCCCCCCCC(=O)NCCCC[C@H](NC(=O)[C@H](CCC(=O)O)NC(=O)[C@H](CC(C)C)NC(=O)[C@H](CCCCN)NC(=O)[C@H](CCCCN)NC(=O)[C@H](CC(C)C)NC(=O)[C@H](CCC(=O)O)NC(=O)[C@H](CCC(=O)O)NC(=O)[C@H](CCC(=O)O)NC(=O)[C@H](CC(N)=O)NC(=O)[C@H](CCCCN)NC(=O)[C@H](CCCCN)NC(=O)[C@H](CCC(N)=O)NC(=O)[C@H](CCC(N)=O)NC(=O)[C@H](CCC(=O)O)NC(=O)[C@H](CCC(=O)O)NC(=O)[C@H](C)NC(=O)[C@H](CCCCN)NC(=O)[C@H](CCCCN)NC(=O)[C@H](CC(C)C)NC(=O)[C@H](CC(C)C)NC(=O)[C@H](CCC(=O)O)NC(=O)[C@H](CCC(=O)O)NC(=O)[C@@H](NC(=O)[C@H](CCCCN)NC(=O)[C@H](CCC(N)=O)NC(=O)[C@H](CCC(=O)O)NC(=O)[C@H](Cc1c[nH]c2ccccc12)NC(C)=O)[C@@H](C)CC)C(N)=O [LP-81] (Ac-WEQKIEELLKKAEEQQKKNEEELKKLEK(Lauroyl)-NH2) | 111 ± 68.1 | 183 ± 45.4 | 49 | -16313 | 37 | 0.353 ± 0.0763 |
| CCCCCCCCCCCCCCCCCC(=O)NCCCC[C@H](NC(=O)[C@H](CCCCN)NC(=O)[C@H](CC(C)C)NC(=O)[C@H](CCC(=O)O)NC(=O)[C@H](CCC(=O)O)NC(=O)[C@H](CCC(=O)O)NC(=O)[C@H](CC(N)=O)NC(=O)[C@H](CCCCN)NC(=O)[C@H](CCCCN)NC(=O)[C@H](CCC(N)=O)NC(=O)[C@H](CCC(N)=O)NC(=O)[C@H](CCC(=O)O)NC(=O)[C@H](CCC(=O)O)NC(=O)[C@H](C)NC(=O)[C@H](CCCCN)NC(=O)[C@H](CCCCN)NC(=O)[C@H](CC(C)C)NC(=O)[C@H](CC(C)C)NC(=O)[C@H](CCC(=O)O)NC(=O)[C@H](CCC(=O)O)NC(=O)[C@@H](NC(C)=O)[C@@H](C)CC)C(N)=O [LP-92] (Ac-IEELLKKAEEQQKKNEEELKK(Stearoyl)-NH2) | 168 ± 20.6 | 229 ± 28.4 | 38 | -12476 | 16 | 0.189 ± 0.0199 |
